This is an account of results in PubChem BioAssay (NCI).

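The compound was tested at five concentrations on cells cultured in 96-well plates, with a 48-hour exposure period. At the TGI there is no net growth.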

In the first test the test system is SK-MEL-28 melanoma. Briefly: growth of human tumour cells (NCI), 48 h.
`O=C1C(Cl)=C(OCCCCl)C(=O)c2c(O)ccc(O)c21` showed a TGI of 4.48 µM.
Consider `NC(=O)NNc1nc2ccccc2c(=O)n1NC(=O)C(=O)Nc1ccc(Cl)cc1Cl`, for which the TGI was above 100 µM.
Consider `Cc1nc2cccc(F)c2c(=O)n1C1CCCCNC1=O` (stereo not drawn), for which the TGI is above 10 µM.
The compound `O=Nc1c(O)cc(Nc2ccc(Br)cc2)c2ccccc12` gave a TGI of 4.2 µM.
Same read-out and setting: with `C=CC/C=C/Cc1csc(C(C)(C)C(O)C/C=C/C(=C)CCNC(=O)OC)n1` (stereo not drawn) the figure was above 100 µM; with `CCN(CC)CCCNc1nc(=O)[nH]c(C)c1C(=O)Nc1cccc2cc3ccccc3cc12`, above 100 µM; with `c1ccc([P+](Cc2ccc(C[P+](c3ccccc3)(c3ccccc3)c3ccccc3)cc2)(c2ccccc2)c2ccccc2)cc1`, above 100 µM.
In turn, `O=S(=O)(O)c1ccc(O)c2ncc(Cl)cc12` had a TGI above 100 µM.
Compound `C[n+]1c2ccccc2c(C(=O)Nc2ccc(S(=O)(=O)Nc3ccnn3-c3ccccc3)cc2)c2ccccc21` returned a TGI above 100 µM.

A further test relates to UO-31 renal. Briefly: growth of human tumour cells (NCI), 48 h.
Consider `O=C(CCCN1CCC2(CC1)OC(=O)N(c1ccccc1)C2=O)c1ccccc1`, for which the TGI worked out at 46.3 µM.
`O=C1c2c(ccc3c2CCCC3)CC12Cc1ccc3c(c1C2=O)CCCC3` gave a TGI above 100 µM.
As to `CCOC(CN=C=S)OCC`, the TGI is above 10 µM.
Regarding `COc1cccc(-c2c(C#N)c(N)nc3c2CCS(=O)(=O)c2ccc(C)cc2-3)c1`, the TGI is above 100 µM.
Still for that read-out and setting: with `CCOC(=O)c1c(N)sc2c1C(C(=O)OCC)CC2` (stereo not drawn) the figure was above 100 µM; with `COC(=O)C(CC12CC3CC(CC(C3)C1)C2)NC(=O)C(N)CC(=O)O` (stereo not drawn), above 100 µM.
`O=C1C(Cl)=C(OCCCCl)C(=O)c2c(O)ccc(O)c21` had a TGI of 12.1 µM.
`NC(=O)NNc1nc2ccccc2c(=O)n1NC(=O)C(=O)Nc1ccc(Cl)cc1Cl` had a TGI above 100 µM.
On to `Cc1nc2cccc(F)c2c(=O)n1C1CCCCNC1=O` (stereo not drawn), for which the TGI was above 10 µM.
`O=Nc1c(O)cc(Nc2ccc(Br)cc2)c2ccccc12` came in with a TGI of 23 µM.
On to `C=CC/C=C/Cc1csc(C(C)(C)C(O)C/C=C/C(=C)CCNC(=O)OC)n1` (stereo not drawn), for which the TGI was above 100 µM.
`CCN(CC)CCCNc1nc(=O)[nH]c(C)c1C(=O)Nc1cccc2cc3ccccc3cc12` yielded a TGI above 100 µM.
As to `c1ccc([P+](Cc2ccc(C[P+](c3ccccc3)(c3ccccc3)c3ccccc3)cc2)(c2ccccc2)c2ccccc2)cc1`, the TGI is above 100 µM.
`O=S(=O)(O)c1ccc(O)c2ncc(Cl)cc12` displayed a TGI above 100 µM.
As to `C[n+]1c2ccccc2c(C(=O)Nc2ccc(S(=O)(=O)Nc3ccnn3-c3ccccc3)cc2)c2ccccc21`, the TGI is above 100 µM.

The next test concerns MDA-MB-231 breast. Briefly: growth of human tumour cells (NCI), 48 h.
Regarding `O=C(CCCN1CCC2(CC1)OC(=O)N(c1ccccc1)C2=O)c1ccccc1`, the TGI stood at 93.4 µM.
In turn, `O=C1c2c(ccc3c2CCCC3)CC12Cc1ccc3c(c1C2=O)CCCC3` displayed a TGI above 100 µM.
Still for that read-out and setting: with `CCOC(CN=C=S)OCC` the figure was above 10 µM; with `COc1cccc(-c2c(C#N)c(N)nc3c2CCS(=O)(=O)c2ccc(C)cc2-3)c1`, above 100 µM; with `CCOC(=O)c1c(N)sc2c1C(C(=O)OCC)CC2` (stereo not drawn), above 100 µM.
For `O=C1C(Cl)=C(OCCCCl)C(=O)c2c(O)ccc(O)c21`, the TGI is 6 µM.
Take `NC(=O)NNc1nc2ccccc2c(=O)n1NC(=O)C(=O)Nc1ccc(Cl)cc1Cl`: the TGI is above 100 µM.
For `Cc1nc2cccc(F)c2c(=O)n1C1CCCCNC1=O` (stereo not drawn), the TGI is above 10 µM.
`O=Nc1c(O)cc(Nc2ccc(Br)cc2)c2ccccc12` had a TGI of 48.3 µM.
Turning to `CCN(CC)CCCNc1nc(=O)[nH]c(C)c1C(=O)Nc1cccc2cc3ccccc3cc12`, the TGI was above 100 µM.
Same read-out and setting: with `c1ccc([P+](Cc2ccc(C[P+](c3ccccc3)(c3ccccc3)c3ccccc3)cc2)(c2ccccc2)c2ccccc2)cc1` the figure was above 100 µM; with `O=S(=O)(O)c1ccc(O)c2ncc(Cl)cc12`, above 100 µM.
On to `C[n+]1c2ccccc2c(C(=O)Nc2ccc(S(=O)(=O)Nc3ccnn3-c3ccccc3)cc2)c2ccccc21`, for which the TGI was above 100 µM.

The next test has as its system ACHN renal. The experiment in a line: growth of human tumour cells (NCI), 48 h.
For `O=C(CCCN1CCC2(CC1)OC(=O)N(c1ccccc1)C2=O)c1ccccc1`, the TGI is above 100 µM.
Turning to `O=C1c2c(ccc3c2CCCC3)CC12Cc1ccc3c(c1C2=O)CCCC3`, the TGI is above 100 µM.
Consider `CCOC(CN=C=S)OCC`, for which the TGI is above 10 µM.
In turn, `COc1cccc(-c2c(C#N)c(N)nc3c2CCS(=O)(=O)c2ccc(C)cc2-3)c1` registered a TGI above 100 µM.
The compound `CCOC(=O)c1c(N)sc2c1C(C(=O)OCC)CC2` (stereo not drawn) registered a TGI above 100 µM.
In turn, `COC(=O)C(CC12CC3CC(CC(C3)C1)C2)NC(=O)C(N)CC(=O)O` (stereo not drawn) returned a TGI above 100 µM.
Regarding `O=C1C(Cl)=C(OCCCCl)C(=O)c2c(O)ccc(O)c21`, the TGI is 16.3 µM.
Compound `NC(=O)NNc1nc2ccccc2c(=O)n1NC(=O)C(=O)Nc1ccc(Cl)cc1Cl` yielded a TGI above 100 µM.
Regarding `Cc1nc2cccc(F)c2c(=O)n1C1CCCCNC1=O` (stereo not drawn), the TGI was above 10 µM.
On the same count and under the same terms, with `O=Nc1c(O)cc(Nc2ccc(Br)cc2)c2ccccc12` the figure was 25.1 µM.
For the compound `C=CC/C=C/Cc1csc(C(C)(C)C(O)C/C=C/C(=C)CCNC(=O)OC)n1` (stereo not drawn), the TGI is above 100 µM.
`CCN(CC)CCCNc1nc(=O)[nH]c(C)c1C(=O)Nc1cccc2cc3ccccc3cc12` gave a TGI above 100 µM.
Regarding `c1ccc([P+](Cc2ccc(C[P+](c3ccccc3)(c3ccccc3)c3ccccc3)cc2)(c2ccccc2)c2ccccc2)cc1`, the TGI was above 100 µM.
For `O=S(=O)(O)c1ccc(O)c2ncc(Cl)cc12`, the TGI was above 100 µM.
The same measure, in the same setting: with `C[n+]1c2ccccc2c(C(=O)Nc2ccc(S(=O)(=O)Nc3ccnn3-c3ccccc3)cc2)c2ccccc21` the figure was above 100 µM.

Another test relates to HOP-62 NSCLC. Briefly: growth of human tumour cells (NCI), 48 h.
Compound `O=C(CCCN1CCC2(CC1)OC(=O)N(c1ccccc1)C2=O)c1ccccc1` registered a TGI above 100 µM.
Compound `O=C1c2c(ccc3c2CCCC3)CC12Cc1ccc3c(c1C2=O)CCCC3` returned a TGI above 100 µM.
In turn, `CCOC(CN=C=S)OCC` returned a TGI above 10 µM.
In turn, `COc1cccc(-c2c(C#N)c(N)nc3c2CCS(=O)(=O)c2ccc(C)cc2-3)c1` had a TGI above 100 µM.
Same read-out and setting: with `CCOC(=O)c1c(N)sc2c1C(C(=O)OCC)CC2` (stereo not drawn) the figure was above 100 µM.
The compound `COC(=O)C(CC12CC3CC(CC(C3)C1)C2)NC(=O)C(N)CC(=O)O` (stereo not drawn) displayed a TGI above 100 µM.
With `O=C1C(Cl)=C(OCCCCl)C(=O)c2c(O)ccc(O)c21`, the TGI is 22 µM.
The same measure, in the same setting: with `NC(=O)NNc1nc2ccccc2c(=O)n1NC(=O)C(=O)Nc1ccc(Cl)cc1Cl` the figure was above 100 µM; with `Cc1nc2cccc(F)c2c(=O)n1C1CCCCNC1=O` (stereo not drawn), above 10 µM; with `O=Nc1c(O)cc(Nc2ccc(Br)cc2)c2ccccc12`, 19.1 µM.
Turning to `C=CC/C=C/Cc1csc(C(C)(C)C(O)C/C=C/C(=C)CCNC(=O)OC)n1` (stereo not drawn), the TGI was above 100 µM.
Regarding `CCN(CC)CCCNc1nc(=O)[nH]c(C)c1C(=O)Nc1cccc2cc3ccccc3cc12`, the TGI is above 100 µM.
On the same count and under the same terms, with `c1ccc([P+](Cc2ccc(C[P+](c3ccccc3)(c3ccccc3)c3ccccc3)cc2)(c2ccccc2)c2ccccc2)cc1` the figure was above 100 µM.
For `O=S(=O)(O)c1ccc(O)c2ncc(Cl)cc12`, the TGI is above 100 µM.
In turn, `C[n+]1c2ccccc2c(C(=O)Nc2ccc(S(=O)(=O)Nc3ccnn3-c3ccccc3)cc2)c2ccccc21` displayed a TGI above 100 µM.

The next test deals with DU-145 prostate. The experiment in a line: growth of human tumour cells (NCI), 48 h.
The compound `O=C(CCCN1CCC2(CC1)OC(=O)N(c1ccccc1)C2=O)c1ccccc1` gave a TGI above 100 µM.
